From PubChem BioAssay AID1963958 (Molecular Pharmacology Branch, DTP, NCI, 2024)
“And” between values parts separate entries of the source, which are not always exact repeats. Equal entries are not always repeated. Each block holds one compound with its values, some of them ahead of it.

Test system: MDA-MB-231 multicell spheroids, viability
Test: Anticancer human tumor MDA-MB-231 cell line growth inhibition [PI3K];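 also: spheroids exposed to agents for seven days before reading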;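 as to viability, T/C: percent of vehicle control luminescence with DMSO treated spheroids as 100%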
Conditions: for viability, T/C: stronger effect = lower value
Method in brief: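 Combination activity was assessed by viability in multicellular tumor spheroids carrying HUVEC and MSC components. Agents were tested with PI3K inhibitors from a Cmax-based top dose (or 10 microM) downward in half-log increments.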

[1] = curve of first compound, second compound 0.00316 µM
[2] = curve of first compound, second compound 0.01 µM
[3] = curve of first compound, second compound 0.0316 µM
[4] = curve of first compound, second compound 0.1 µM
[5] = curve of first compound, second compound 0.316 µM
[6] = curve of first compound, second compound 1 µM
[7] = second compound 0.00316 µM, first compound 0.0316 µM
[8] = second compound 0.00316 µM, first compound 0.1 µM
[9] = second compound 0.00316 µM, first compound 0.316 µM
[10] = second compound 0.00316 µM, first compound 1 µM
[11] = second compound 0.00316 µM, first compound 3.16 µM
[12] = second compound 0.00316 µM, first compound 10 µM
[13] = second compound 0.01 µM, first compound 0.0316 µM
[14] = second compound 0.01 µM, first compound 0.1 µM
[15] = second compound 0.01 µM, first compound 0.316 µM
[16] = second compound 0.01 µM, first compound 1 µM
[17] = second compound 0.01 µM, first compound 3.16 µM
[18] = second compound 0.01 µM, first compound 10 µM
[19] = second compound 0.0316 µM, first compound 0.0316 µM
[20] = second compound 0.0316 µM, first compound 0.1 µM
[21] = second compound 0.0316 µM, first compound 0.316 µM
[22] = second compound 0.0316 µM, first compound 1 µM
[23] = second compound 0.0316 µM, first compound 3.16 µM
[24] = second compound 0.0316 µM, first compound 10 µM
[25] = second compound 0.1 µM, first compound 0.0316 µM
[26] = second compound 0.1 µM, first compound 0.1 µM
[27] = second compound 0.1 µM, first compound 0.316 µM
[28] = second compound 0.1 µM, first compound 1 µM
[29] = second compound 0.1 µM, first compound 3.16 µM
[30] = second compound 0.1 µM, first compound 10 µM
[31] = second compound 0.316 µM, first compound 0.0316 µM
[32] = second compound 0.316 µM, first compound 0.1 µM
[33] = second compound 0.316 µM, first compound 0.316 µM
[34] = second compound 0.316 µM, first compound 1 µM
[35] = second compound 0.316 µM, first compound 3.16 µM
[36] = second compound 0.316 µM, first compound 10 µM
[37] = second compound 1 µM, first compound 0.0316 µM
[38] = second compound 1 µM, first compound 0.1 µM
[39] = second compound 1 µM, first compound 0.316 µM
[40] = second compound 1 µM, first compound 1 µM
[41] = second compound 1 µM, first compound 3.16 µM
[42] = second compound 1 µM, first compound 10 µM
[43] = curve of first compound, second compound 3.16 µM
[44] = curve of first compound, second compound 10 µM
[45] = second compound 0.0316 µM, first compound 0.000316 µM
[46] = second compound 0.0316 µM, first compound 0.001 µM
[47] = second compound 0.0316 µM, first compound 0.00316 µM
[48] = second compound 0.0316 µM, first compound 0.01 µM
[49] = second compound 0.1 µM, first compound 0.000316 µM
[50] = second compound 0.1 µM, first compound 0.001 µM
[51] = second compound 0.1 µM, first compound 0.00316 µM
[52] = second compound 0.1 µM, first compound 0.01 µM
[53] = second compound 0.316 µM, first compound 0.000316 µM
[54] = second compound 0.316 µM, first compound 0.001 µM
[55] = second compound 0.316 µM, first compound 0.00316 µM
[56] = second compound 0.316 µM, first compound 0.01 µM
[57] = second compound 1 µM, first compound 0.000316 µM
[58] = second compound 1 µM, first compound 0.001 µM
[59] = second compound 1 µM, first compound 0.00316 µM
[60] = second compound 1 µM, first compound 0.01 µM
[61] = second compound 3.16 µM, first compound 0.000316 µM
[62] = second compound 3.16 µM, first compound 0.001 µM
[63] = second compound 3.16 µM, first compound 0.00316 µM
[64] = second compound 3.16 µM, first compound 0.01 µM
[65] = second compound 3.16 µM, first compound 0.0316 µM
[66] = second compound 3.16 µM, first compound 0.1 µM
[67] = second compound 10 µM, first compound 0.000316 µM
[68] = second compound 10 µM, first compound 0.001 µM
[69] = second compound 10 µM, first compound 0.00316 µM
[70] = second compound 10 µM, first compound 0.01 µM
[71] = second compound 10 µM, first compound 0.0316 µM
[72] = second compound 10 µM, first compound 0.1 µM

SMILES: CC(C)n1nc(-c2ccc3oc(N)nc3c2)c2c(N)ncnc21 + Cc1nc(NC(=O)N2CCCC2C(N)=O)sc1-c1ccnc(C(C)(C)C(F)(F)F)c1
IC50 [3]: 42.2 nM
IC50 [4]: 25.3 nM
IC50 [5]: 10.9 nM
IC50 [6]: 6.29 nM
IC50 [43]: 4.81 nM
IC50 [44]: 3.17 nM
viability, T/C [45]: 94%
viability, T/C [46]: 85.8%
viability, T/C [47]: 80.9%
viability, T/C [48]: 69.3%
viability, T/C [19]: 55.3%
viability, T/C [20]: 35.2%
viability, T/C [49]: 85.7%
viability, T/C [50]: 85.7%
viability, T/C [51]: 71.2%
viability, T/C [52]: 65.2%
viability, T/C [25]: 45.9%
viability, T/C [26]: 31.3%
viability, T/C [53]: 73%
viability, T/C [54]: 72%
viability, T/C [55]: 60.2%
viability, T/C [56]: 50.6%
viability, T/C [31]: 39.6%
viability, T/C [32]: 27.7%
viability, T/C [57]: 68.3%
viability, T/C [58]: 58%
viability, T/C [59]: 55.5%
viability, T/C [60]: 49.1%
viability, T/C [37]: 35%
viability, T/C [38]: 23.6%
viability, T/C [61]: 66.4%
viability, T/C [62]: 63.2%
viability, T/C [63]: 54.1%
viability, T/C [64]: 41.4%
viability, T/C [65]: 34.8%
viability, T/C [66]: 25.3%
viability, T/C [67]: 62.3%
viability, T/C [68]: 56%
viability, T/C [69]: 50.4%
viability, T/C [70]: 43.9%
viability, T/C [71]: 33.8%
viability, T/C [72]: 28.5%

SMILES: CC1(C)CCC(CN2CCN(c3ccc(C(=O)NS(=O)(=O)c4ccc(NCC5CCOCC5)c([N+](=O)[O-])c4)c(Oc4cnc5[nH]ccc5c4)c3)CC2)=C(c2ccc(Cl)cc2)C1
viability, T/C (compound 0.0316 µM): 108% [middle of 4 runs]
viability, T/C (compound 0.1 µM): 103% [middle of 4 runs]
viability, T/C (compound 0.316 µM): 109% [middle of 4 runs]
viability, T/C (compound 1 µM): 113% [middle of 4 runs]
viability, T/C (compound 3.16 µM): 113% (2×) and 112% and 119%

SMILES: CC(C)NCC(C(=O)N1CCN(c2ncnc3c2C(C)CC3O)CC1)c1ccc(Cl)cc1 (stereo not given) + CC(Nc1ccc2c(c1)OCCn1cc(N3C(=O)OCC3C(F)F)nc1-2)C(N)=O
IC50 [1]: 7030 nM
IC50 [2]: 6950 nM
IC50 [3]: 5100 nM
IC50 [4]: 4310 nM
IC50 [5]: 2690 nM
IC50 [6]: 1920 nM
viability, T/C [7]: 95.8%
viability, T/C [8]: 94.6%
viability, T/C [9]: 99.3%
viability, T/C [10]: 86.6%
viability, T/C [11]: 67.1%
viability, T/C [12]: 42.5%
viability, T/C [13]: 87.5%
viability, T/C [14]: 93.1%
viability, T/C [15]: 81.8%
viability, T/C [16]: 81.6%
viability, T/C [17]: 60.1%
viability, T/C [18]: 45.2%
viability, T/C [19]: 86.6%
viability, T/C [20]: 84.1%
viability, T/C [21]: 72.7%
viability, T/C [22]: 71.4%
viability, T/C [23]: 56.8%
viability, T/C [24]: 39.9%
viability, T/C [25]: 71.6%
viability, T/C [26]: 72.8%
viability, T/C [27]: 67.7%
viability, T/C [28]: 63.5%
viability, T/C [29]: 54.5%
viability, T/C [30]: 38.2%
viability, T/C [31]: 66.2%
viability, T/C [32]: 63.7%
viability, T/C [33]: 59.7%
viability, T/C [34]: 61.6%
viability, T/C [35]: 47.2%
viability, T/C [36]: 30.8%
viability, T/C [37]: 64%
viability, T/C [38]: 61.3%
viability, T/C [39]: 58.9%
viability, T/C [40]: 52.9%
viability, T/C [41]: 48.3%
viability, T/C [42]: 34.9%

Further lines, with some results ahead:

IC50 [1]: 5140 nM
IC50 [2]: 3480 nM
IC50 [3]: 1650 nM
IC50 [4]: < 31.6 nM
IC50 [5]: < 31.6 nM
IC50 [6]: < 31.6 nM
SMILES: CCCS(=O)(=O)Nc1ccc(F)c(C(=O)c2c[nH]c3ncc(-c4ccc(Cl)cc4)cc23)c1F + COc1c(OCCCN2CCOCC2)ccc2c3n(c(=NC(=O)c4cnc(N)nc4)nc12)CCN3
viability, T/C [7]: 104%
viability, T/C [8]: 103%
viability, T/C [9]: 96.6%
viability, T/C [10]: 76.5%
viability, T/C [11]: 63.1%
viability, T/C [12]: 34.8%
viability, T/C [13]: 74.4%
viability, T/C [14]: 91.3%
viability, T/C [15]: 80.4%
viability, T/C [16]: 67.6%
viability, T/C [17]: 53%
viability, T/C [18]: 32.3%
viability, T/C [19]: 65.1%
viability, T/C [20]: 64.7%
viability, T/C [21]: 62.7%
viability, T/C [22]: 57%
viability, T/C [23]: 41%
viability, T/C [24]: 25.3%
viability, T/C [25]: 48%
viability, T/C [26]: 49.8%
viability, T/C [27]: 50%
viability, T/C [28]: 44.5%
viability, T/C [29]: 34%
viability, T/C [30]: 20.9%
viability, T/C [31]: 34.8%
viability, T/C [32]: 35.1%
viability, T/C [33]: 34.4%
viability, T/C [34]: 30.7%
viability, T/C [35]: 24.4%
viability, T/C [36]: 15.7%
viability, T/C [37]: 28.2%
viability, T/C [38]: 28.3%
viability, T/C [39]: 26.7%
viability, T/C [40]: 24.9%
viability, T/C [41]: 20.3%
viability, T/C [42]: 13.2%

IC50 [3]: > 100 nM
IC50 [4]: > 100 nM
IC50 [5]: > 100 nM
IC50 [6]: > 100 nM
IC50 [43]: > 100 nM
IC50 [44]: < 0.316 nM
SMILES: Cn1ncnc1[C@H]1c2n[nH]c(=O)c3cc(F)cc(c23)N[C@@H]1c1ccc(F)cc1 + CC(Nc1ncnc2nc[nH]c12)c1cc2cccc(Cl)c2c(=O)n1-c1ccccc1
viability, T/C [45]: 106%
viability, T/C [46]: 108%
viability, T/C [47]: 97.6%
viability, T/C [48]: 92.5%
viability, T/C [19]: 98.9%
viability, T/C [20]: 77.1%
viability, T/C [49]: 99.7%
viability, T/C [50]: 99.7%
viability, T/C [51]: 103%
viability, T/C [52]: 94%
viability, T/C [25]: 92%
viability, T/C [26]: 79.2%
viability, T/C [53]: 94.7%
viability, T/C [54]: 103%
viability, T/C [55]: 86.8%
viability, T/C [56]: 93.3%
viability, T/C [31]: 86.9%
viability, T/C [32]: 76.1%
viability, T/C [57]: 87.2%
viability, T/C [58]: 81.9%
viability, T/C [59]: 80.8%
viability, T/C [60]: 78%
viability, T/C [37]: 73.4%
viability, T/C [38]: 65%
viability, T/C [61]: 63.7%
viability, T/C [62]: 60.9%
viability, T/C [63]: 54.1%
viability, T/C [64]: 60.6%
viability, T/C [65]: 49.8%
viability, T/C [66]: 52.3%
viability, T/C [67]: 48.9%
viability, T/C [68]: 47.6%
viability, T/C [69]: 46.8%
viability, T/C [70]: 46.4%
viability, T/C [71]: 46%
viability, T/C [72]: 38.8%

IC50 (curve of compound): 431 nM [middle of 4 runs]
SMILES: Cn1cnc2c(F)c(Nc3ccc(Br)cc3Cl)c(C(=O)NOCCO)cc21
viability, T/C (compound 0.00949 µM): 72.7% [middle of 4 runs]
viability, T/C (compound 0.03 µM): 64.9% [middle of 4 runs]
viability, T/C (compound 0.0949 µM): 59.5% and 57.3% (2×) and 57.6%
viability, T/C (compound 0.3 µM): 53.2% [middle of 4 runs]
viability, T/C (compound 0.949 µM): 47.3% [middle of 4 runs]
viability, T/C (compound 3 µM): 34.5% [middle of 4 runs]
